The text below walks through data of patent US9796755B2, “Methods of treating depression and other related diseases” (Northwestern University, priority 2009, dated 2017).

Structures are written as SMILES. Where a SMILES comes first, the peptide text is derived from it.

Test [1] concerns rats. In words: Porsolt test after microinjection into medial prefrontal cortex or motor cortex. The format is in vivo, rat. As to the method: To determine whether GLYX-13 acts in an area of the brain that is clinically relevant for depression, GLYX-13 was administered to either the medial prefrontal cortex (MPFC), which is associated with mood and depression, or to the motor cortex (FIG. 4). Mean time spent immobile in the Porsolt test was determined for groups of 10 three-month old male Fisher Brown Norway FI (FBNFI) rats pretreated with a single injection of GLYX-13 (1, 10 ug/side) or a single saline vehicle injection (0.5 ul/1 min) bilaterally into the medial prefrontal cortex or motor cortex (dorsal control) in animals with surgically implanted chronic indwelling cannulae aimed at the MPFC. […] Animals received a single 15 min training swim session one day before dosing.
The Porsolt test adapted for use in rats was performed as above. Animals were placed in a 46 cm tall×20 cm in diameter clear plastic tube filled to 30 cm with tap water (23±1° C.) for 15 min on the first day (habituation) and […] on the subsequent test day.
Bilateral 22-gauge guide cannulae (Plastic Products, USA) were stereotaxically implanted into the infralimbic/prelimbic cortex (+2.7 mm anterior,±1.2 mm lateral, 3.1 mm. ventral to bregma; cannulae angled 12° away from the midline) or dorsal control primary secondary motor cortex. (+2.7 mm anterior,±1.2 mm lateral, 1.0 mm ventral to bregma; cannulae angled 12° away from the midline). Animals were allowed 1 week to recover from surgery before the start of testing. After the completion of behavioral testing, histology was conducted for cannulae tip location. For medial prefrontal cannulae, all tips were located within the infralimbic or prelimbic cortex 2.2-3.2 mm anterior to bregma. For motor cortex cannulae, all tips were located, within the primary or secondary motor cortex 2.2-3.2 mm anterior to bregma.

The subject of test [2] is β-catenin. In words: Total β-catenin protein level in medial prefrontal cortex. The format is in vivo, rat. The note with it: 24 hrs after GLYX-13 3 mg/kg IV or ketamine 10 mg/kg IV.
In test [3] the test system is GluR1. The test is described as follows: Total and phosphoserine-845 GluR1 by Western blot in medial prefrontal cortex. The format is in vivo, rat. To be noted: 24 hrs after GLYX-13 3 mg/kg IV or ketamine 10 mg/kg IV. The source says:
Total and Phosphoserine-9 glycogen synthase kinase 3β (GSK-3β) were quantified by ELISA according to the manufacturer's instructions (catalog numbers ADI-900-144 and ADI-900-123A, Assay Designs, USA). Total and phosphoserine-845 GluR1 were quantified by Western blot.
A general note: Immunoblotting shows a protein as a band on a membrane.

Test [4] addresses T1, NMDA receptor (Rattus norvegicus, UniProt P35439).
T1 construct: from tissue; host or cells: rat hippocampal slices, CA1 pyramidal neurons
In words: Pharmacologically isolated NMDAR EPSCs in hippocampal slices (CA1 pyramidal neurons). The format is cell-based. The note with it: NMDA receptor current, hippocampal slice assay; read-out: intrinsic activity relative to D-serine (full agonist). On the procedure: Experiments were conducted on hippocampal slices from 14-18 day old Sprague-Dawley rats. Whole cell recordings were obtained from CA1 pyramidal neurons voltage clamped at −69 mV, in slices perfused with ACSF containing 0 mM [Mg2+] and 3 mM [Ca2+], plus 10 μM bicuculline and 20 μM CNQX to pharmacologically isolate NMDAR-dependent. EPSCs. Following bath applications of varying concentrations of GLYX-13 and D-serine, EPSCs were elicited by stimulating Schaffer collateral fibers with single electrical pulses (80 μs duration) once every 30 s.
Functional affinity, Kp, of GLYX-13 for the NMDAR was estimated using the equiactive concentration null method of Stephenson (Stephenson R. P. (1956) A modification of receptor theory. Br J Pharmacol Chemother 11(4):379-393) as exemplified by Kenakin (Kenakin T. P. (1997) Pharmacologic Analysis of Drug-Receptor Interaction (New York.)) In this analysis concentration-response curves are generated to full agonist, and to the full agonist in the presence of a set concentration of the partial agonist of interest (FIG. 18, Panel B). Equiactive concentrations arc read off the […] of each of the concentration-respouse curves and plotted as the concentration of full agonist [D-serine] alone and in the presence of partial agonist [GLYX-13] that produce equal effect.

The subject of test [5] is rat hippocampal organotypic cultures. The test is described as follows: LTP and LTD in rat hippocampal organotypic cultures. Type of test: cell-based. To be noted: in vitro.

On to `C[C@@H](O)[C@H](N)C(=O)N1CCC[C@H]1C(=O)N1CCC[C@H]1C(=O)N[C@H](C(N)=O)[C@@H](C)O` [GLYX-13, L-threonyl-L-prolyl-L-prolyl-L-threonine amide] (H-TPPT-NH2), for which the “effect on floating time in the Porsolt test” value in test [1] (MPFC injection 1 μg/side, two weeks post dosing, independent group) was “Reduction in floating time was still apparent”. Moreover, in test [1] (MPFC injections, 1 and 10 μg/side, 20 min post dosing), the “effect on floating time in the Porsolt test” value is “reduced floating time”. For the same molecule, in test [1] (injected into MPFC, FBNF1 rats, 20 min post injection, Mean±SEM), the “reduction in floating compared to saline control or GLYX-13 injected into motor cortex” value stood at 50±5%. The “total β-catenin” value in test [2] is “reduced”. Moreover, the “Phosphoserine-845 GluR1/total GluR1 ratio” value in test [3] is listed as “increased”. Moreover, in test [4], the Emax was determined as 23%. Also, in test [5], the “long-term depression (LTD)” value is “reducing” and the “long-term potentiation (LTP)” value is “markedly elevate”.
